{
  "source": "patent US20220145264A1",
  "about": "“CULTURE MEDIUM FOR MAMMALIAN EXPANDED POTENTIAL STEM CELLS, COMPOSITION, AND METHODS THEREOF” (THE UNIVERSITY OF HONG KONG, priority 2019, published 2022)",
  "key": {"H1-EPSCs [1]": {"system": "H1-EPSCs", "assay": "EB formation assay of H1-EPSCs, lineage gene expression", "type": "cell-based, human", "conditions": "5.0 ng/ml supplemented in hEPSCM", "description": "Porcine and human EPSCs were trypsinised and seeded in gelatinised 6-well plates at a density of 4×10^6 cells/well for pre-differentiation. M15 media supplemented with 20 ng/ml ACTIVIN A (SCI) and 5 μM Rock inhibitor Y-27632 were used to culture the replated cells. The next day, the cells were detached using 0.25% trypsin/EDTA (Gibco, Cat. No. 25500-054) and plated to ultra-low cell attachment U-bottom 96-well plates (Corning, Cat. No. 7007) at a density of 5,000-6,000 cells/well in 200 μl M10 medium. After 7-8 days of growing, the EBs were collected for analysis. 0.25% (v/v) poly-vinyl alcohol (Sigma, Cat. No. 341584) was added in the medium to help cells aggregation.\nTotal RNA was isolated using an RNeasy Mini Kit (Qiagen, Cat. No. 74106) for cultured cells or RNeasy Micro Kit (Qiagen, Cat. No. 74034) for sorted NANOS3-mCherry^+ cells. RNA was subsequently quantified and treated with gDNA WipeOut to remove genomic DNA. Complementary DNA (cDNA) was prepared using a QuantiTect Reverse Transcription Kit (Qiagen, Cat. No. 205311). RT-qPCR primers or TaqMan Gene Expression Assays (Life Technologies) are listed in Supplementary Table 10 and 11. […] Gene expression was determined relative to GAPDH using the […]. […]"}, "H1-EPSCs [2]": {"system": "H1-EPSCs", "assay": "Requirement of individual culture components for hEPSCs (RT-qPCR, AP+ colony formation)", "type": "cell-based, human", "conditions": "in the presence of 5.0 ng/ml", "description": "Porcine and human EPSC cultures were routinely maintained on STO feeders. STO feeder plates were prepared 3-4 days before passaging by thawing and plating the mitomycin C inactivated STO cells on 0.1% gelatinised plates at the density of ˜1.1×10^4 cells/cm^2. Porcine/human EPSC cells were maintained on STO feeder layers and enzymatically passaged every 3-5 days by a brief PBS wash followed by treatment for 3-5 minutes with 0.25% trypsin/EDTA (Gibco, Cat. No. 25500-054). The cells were dissociated and centrifuged (300 g×5 minutes) in M10 medium. M10: knockout DMEM (Gibco, Cat. No. 10829-018), 10% FBS (Gibco, Cat. No. 10270), 1× Glutamine Penicillin-Streptomycin (Thermo Fisher Scientific, Cat. No. 11140050) and 1×NEAA (Thermo Fisher Scientific, Cat. No. 10378-016). After removing supernatant, the porcine/human EPSCs were re-suspended and seeded in pEPSCM/hEPSCM supplemented with 5 μM ROCK inhibitor Y-27632 (Tocris, Cat. No. 1254). 5% FBS (Gibco, Cat. No. 10270) and 10% KnockOut Serum Replacement (KSR) (Gibco, Cat. No. 10828028) were added in pEPSCM and hEPSCM respectively to improve cells survive. 12-24 hours later, medium was switched to pEPSCM/hEPSCM only. Both pEPSCM and hEPSCM are N2B27 based media. N2B27 basal media (500 ml) was prepared by inclusion of the following components: 482.5 ml DMEM/F-12 (Gibco, Cat. No. 21331-020), 2.5 ml N2 supplement (Thermo Fisher Scientific, Cat. No. 17502048), 5 ml B27 supplement (Thermo Fisher Scientific, Cat. No. 17504044), 5 ml 1× Glutamine Penicillin-Streptomycin (Thermo Fisher Scientific, Cat. No. 11140-050), and 5 ml 1×NEAA (Thermo Fisher Scientific, Cat. No. 10378-016), 0.1 mM 2-mercaptoethanol (Sigma, Cat. No. M6250). pEPSCM (500 ml) was generated by adding the following small molecules and cytokines into 500 ml N2B27 basal media: 0.2 μM CHIR99021(GSK3i, TOCRIS, Cat. No. 4423), 1 μM WH-4-023 (SRC inhibitor, TOCRIS, Cat. No. 5413), 2.5 μM XAV939 (Sigma, Cat. No. X3004) or 2.5 μM IWR-1 (TOCRIS, Cat. No. 3532), […] Vitamin C (Sigma, Cat. No. 49752-100G), 10 ng/ml LIF (Stem Cell Institute, University of Cambridge. SCI) and 20 ng/ml ACTIVIN (SCI). hEPSCM (500 ml) was generated by adding the following components into 500 ml N2B27 basal media: 1.0 μM CHIR99021(GSK3 inhibitor, TOCRIS, Cat. No. 4423), 0.5 μM A-419259 (SRC inhibitor, TOCRIS, Cat. No. 3914), 2.5 μM XAV939 (Sigma, Cat. No. X3004), […] Vitamin C (Sigma, Cat. No. 49752-100G), 10 ng/ml LIF (SCI). Although both targeting SRC family kinases (SFKs), WH-4-023 and A419259 were preferred for porcine and human EPSCs, respectively. […] The concentrations of CHIR99021 for porcine and human EPSC cultures are 0.2 μM and 1.0 μM, respectively. […] 0.25 μM SB 590885 (BRAF inhibitor, R&D, Cat. No. 2650) and 2.0 μM SP600125 ([…], TOCRIS, Cat. No. 1496) were included to improve porcine and human EPSC cultures, but they were not essential for the routine maintenance of porcine and human EPSCs. All cell cultures in this paper were performed under conditions of 37° C. and 5% CO2 unless stated otherwise.\nTotal RNA was isolated using an RNeasy Mini Kit (Qiagen, Cat. No. 74106) for cultured cells or RNeasy Micro Kit (Qiagen, Cat. No. 74034) for sorted NANOS3-mCherry^+ cells. RNA was subsequently quantified and treated with gDNA WipeOut to remove genomic DNA. Complementary DNA (cDNA) was prepared using a QuantiTect Reverse Transcription Kit (Qiagen, Cat. No. 205311). RT-qPCR primers or TaqMan Gene Expression Assays (Life Technologies) are listed in Supplementary Table 10 and 11. ABsolute Blue qPCR ROX Mix (ABgene, Cat. No. AB4138B) were used for probe based qPCR assays and SYBR Green ROX qPCR Mastermix (Qiagen, Cat. No. 330523) were used for primer based qPCR assays. All qPCR reactions were performed on ABI 7900 HT Sequence Detection System (Life Technologies). Information on all primers and probes used for qPCR analysis are provided in Supplementary Table 10 and 11. Gene expression was determined relative to GAPDH using the […]. […]"}},
  "note": "“Also recorded” adds a separate entry of the source.",
  "data": [
    {"substance": "ACTIVIN A: Human Recombinant ACTIVIN A cytokine", "values": [
      {"measurement": "embryonic mesendoderm lineage differentiation / lineage gene expression in EBs", "setting": "H1-EPSCs [1]", "result": "stronger propensity for embryonic mesendoderm lineage differentiation; also recorded: substantially increased"},
      {"measurement": "cell survival at passaging", "setting": "H1-EPSCs [2]", "result": "substantially improved"}
    ]}
  ]
}
